Measured values published in US20020198373A1, “PARTICULATE DRUG CARRIERS” (priority 1997, published 2002).

Tested on: human erythrocytes
Assay: Haemocompatibility study (haemolysis)
Assay type: cell-based
Conditions: erythrocyte, 5 h, relative to triton X-100 100% and PBS 0%
Experimental: Freshly drawn human blood was centrifuged (3,000 g) to separate the red blood cells. These were washed in PBS (pH=7.4) and weighed. 3 g of the erythrocyte pellet was dispersed in 100 mL PBS (pH=7.4) and incubated for 5 h with various concentrations of GCP41, cholesterol vesicles prepared as described above or DOTAP vesicles (Sigma Chemical Co., UK). Haemolysis was assessed by centrifugation (3,000 g) to isolate the released haemoglobin, addition of 2×volume of isopropanol to the supernatant and the measurement of the absorbance (570 nm).

Q: How did the “% Haemolysis (n = 3)” value (DOTAP ratio 30) turn out when CCCCCCCC/C=C\CCCCCCCC(=O)OCC(C[N+](C)(C)C)OC(=O)CCCCCCC/C=C\CCCCCCCC.COS(=O)(=O)[O-] (centres unmarked) [DOTAP, N-[1-(2,3-dioleoyloxy)propyl]-N,N,N-trimethylammonium methylsulphate] was run?
A: Its value is 101.4 ± 20.4%.

Q: And the “% Haemolysis (n = 3)” value (DOTAP ratio 300)?
A: Its value is 71.0 ± 10.6%.
